Marks after values point to notes of the source that are not given here.
Key:
[1] = Stability of vitamin B12 during sterilization at different C0; type: physicochemical; settings: Batch 3 (5% lipid emulsion); C0=120 min
Description: Therefore, in a first step, exemplary glucose solutions and lipid emulsions each containing vitamin B12 were submitted to different amounts of C0 during the sterilization step to analyze the impact of C0 on the stability of vitamin B12. Several C0 values were targeted and a wide range, from 20 min to 120 min, was screened to understand the correlation between C0 and the degradation of vitamin B12 in different media. Bags of lipid emulsion were produced, wherein the 5% olive-based emulsion contained vitamin B12 (cyanocobalamin form) at a concentration of 1 dd in 25 mL and, in one case, EDTA in a concentration of 0.1% w/v of the final emulsion (see Table 6). […] The heat sensitivity of the vitamin was assessed through the analysis of the respective degradation profile. […]
The solutions were analyzed unsterilized and sterilized for each cycle. […]
Bags were then analyzed at the respective points in time to evaluate the impact on the degradation of vitamin B12. The quantitative determination of vitamin B12 in the form of cyano- and hydroxocobalamins was done by Ultra Performance Liquid Chromatography (UPLC), which separates components of a solution by partitioning of the analytes between a mobile liquid phase and a […] (reversed phase mode). […]

[2] = Vitamin stability in 35% glucose solution during sterilization and storage; type: physicochemical; settings: 35% glucose solution; for T1M40° C. concentration: 1 month at 40° C.; for T3M40° C. concentration: 3 months at 40° C.; for T6M40° C. concentration: 6 months at 40° C., B12 value (*) is the sum of cyanocobalamin and hydroxocobalamin
Description: For testing the stability of vitamin B12 in formulation as they are typically used in parenteral nutrition, a 35% glucose solution, a 14.2% amino acid formulation such as found, for example, in Olimel N9E (Baxter), and a 20% lipid emulsion such as found in Clinoleic 20% (Baxter) were supplemented with different vitamin combinations which always included vitamin B12. KCl was added into the glucose solution to understand if it has an effect on the stability of vitamin B12. Vitamin B1 was introduced as thiamin HCl. Ascorbyl palmitate was added to the lipid emulsion formulation as a stabilizing agent due to its antioxidant properties. In addition, two separate micellar solutions (“Vit A” and “Vit B”, see Table 9) comprising certain vitamins to be assessed with regard to degradation (B3, B6, B8, B9, B12, C) but formulated with different excipients as micellization agents were tested for vitamin B12 stability. Vit A consisted of a solution of mixed micelles with ascorbyl palmitate as a potential stability enhancer. Vit B was formulated with a mix of polysorbates, PEG and sorbitol to form micelles. The micellar solutions were prepared by mixing, under high speed, a solution composed of glycocholic acid and lecithins dissolved in water. In case of Vit B, the glycocholic acid and lecithin were replaced by PEG and polysorbate. All formulations were provided in standard flexible containers and overpouched with an aluminum overpouch for subsequent sterilization. For an overview over formulations and conditions see Table 9.
All samples were submitted to two different sterilization technologies. Steam sterilization targeting a F0=8 min was used for large volumes (400/800 ml, Cycle 2) and for small volumes (25/50 ml, Cycle 1) as lined out in Table 9 above. The same samples were sterilized by water spray sterilization with a serial tower continuous sterilization equipment with two different exposure times (Cycles 3 (25 min.) and 4 (19 min.)).
The vitamin recovery was then compared between the different sterilization cycles and formulations to understand the impact of the formulation and the sterilization technology used on their respective short- and long-term stability. Therefore, after sterilization, the samples were stored at 40° C./25% RH for 6 months to evaluate the recovery of vitamin B12 at T1M, T3M and T6M. Besides, backup samples were stored at 5° C. Finally, some samples were also stored at 25° C./40% RH to provide for real time stability data.

[3] = 25 ml, Cycle 1 steam sterilization
[4] = 800 ml, Cycle 2 steam sterilization
[5] = 800 ml, Cycle 3 water spray sterilization
[6] = 800 ml, Cycle 4 water spray sterilization

**Q.** For cobalamin [Batch B12], which “degradation of the total sum of vitamin B12” value [1] is on record?
**A.** The value was “about 35%”.

**Q.** What about the “Unsterilized T0 concentration” value ([2]; 25 ml (Table 10A)) of the same substance?
**A.** Its value is 0.0062 mg/L.

**Q.** And the “T1M40° C. concentration” value [2, 3]?
**A.** The value was 0.0045 mg/L.

**Q.** What about the “T3M40° C. concentration” value [2, 3] of the same substance?
**A.** Its value is 0.0037 mg/L.

**Q.** And the “Unsterilized T0 concentration” value ([2]; 800 ml (Table 10B))?
**A.** Its value is 0.0062 mg/L.

**Q.** And the “Unsterilized T0 concentration” value ([2]; 800 ml (Table 11A))?
**A.** The value was 0.006 mg/L.

**Q.** And the “Unsterilized T0 concentration” value ([2]; 800 ml (Table 11B))?
**A.** The value was 0.006 mg/L.

**Q.** What about the “T1M40° C. concentration” value [2, 4] of the same substance?
**A.** Its value is 0.0040 mg/L.

**Q.** And the “T3M40° C. concentration” value [2, 4]?
**A.** Its value is 0.0036 mg/L.

**Q.** And the “Cycle 3 T0 concentration” value ([2]; 800 ml, Cycle 3 water spray sterilization, C0 = 25 minutes, after sterilization)?
**A.** The value was 0.0051 mg/L.

**Q.** What about the “T3M40° C. concentration” value [2, 5] of the same substance?
**A.** Its value is 0.0041 mg/L.

**Q.** And the “T6M40° C. concentration” value [2, 5]?
**A.** Its value is 0.0023* mg/L.

**Q.** What about the “Cycle 4 T0 concentration” value ([2]; 800 ml, Cycle 4 water spray sterilization, C0 = 19 minutes, after sterilization) of the same substance?
**A.** The value was 0.0052 mg/L.

**Q.** What about the “T3M40° C. concentration” value [2, 6] of the same substance?
**A.** Its value is 0.0041 mg/L.

**Q.** What about the “T6M40° C. concentration” value [2, 6] of the same substance?
**A.** Its value is 0.0031* mg/L.
